# Earlier results in US7348294B2, “Adsorbent and method for adsorbing cardiac glycoside” (Kaneka Corporation, priority 2000, dated 2008).
# Conditions: octanol-water; ligand before immobilization
smiles,measurement,value
CCCCN [n-butylamine],log P,0.97
